The record followed here is patent publication US12139520B2 (priority 2020, dated 2024).

Data set [1] concerns the target hAM1 receptor (Homo sapiens, UniProt O60895+Q16602). The data set is described as follows: cAMP assay for in vitro receptor activation, hAM1-R. It is filed as cell-based. The conditions noted are these: cAMP assay, hAM1 receptor; read-out: hAM1R EC50. In outline: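 A subcloned monoclonal line stably expressing hAM1 receptor is thawed and plated at 8000 cells/well. The assay buffer is DPBS with 0.05% casein and 0.5 mM IBMX, and receptor activation is followed by cAMP levels.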

Data set [2] in a line: Physical stability of peptide analogues (Thioflavin T fibrillation). The class given is physicochemical. The conditions noted are these: maximum ThT signal normalized between hAMY maximum and buffer background; 40° C., shaking, four days; pH 7 per table title. In outline:
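Peptides in 50 mM sodium acetate pH 4 or 50 mM sodium phosphate pH 7 were preincubated 1 h, mixed with 4 μM ThT, held at 40° C with 700 rpm shaking before each read. Fluorescence (ex 450/em 480 nm) every 10 min for four days; LOESS-smoothed maximum signal normalized in percent between hAMY and buffer.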

Data set [3] deals with T1, hAMY3 receptor (Homo sapiens, UniProt O60896+P30988).
T1 sequence (P30988 25-474): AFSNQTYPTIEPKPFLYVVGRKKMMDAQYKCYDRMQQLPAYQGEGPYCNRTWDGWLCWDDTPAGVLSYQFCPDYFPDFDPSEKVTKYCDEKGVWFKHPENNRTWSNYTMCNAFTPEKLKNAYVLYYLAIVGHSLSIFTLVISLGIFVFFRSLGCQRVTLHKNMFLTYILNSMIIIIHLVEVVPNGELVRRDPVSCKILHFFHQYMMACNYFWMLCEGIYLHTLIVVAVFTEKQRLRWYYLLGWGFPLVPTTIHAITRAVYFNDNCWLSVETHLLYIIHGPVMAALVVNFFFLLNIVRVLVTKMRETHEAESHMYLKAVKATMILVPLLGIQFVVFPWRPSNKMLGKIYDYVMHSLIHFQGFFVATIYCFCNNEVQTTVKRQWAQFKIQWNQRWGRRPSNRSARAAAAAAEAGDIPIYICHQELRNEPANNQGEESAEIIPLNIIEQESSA
T1 sequence (O60896 24-148 partner): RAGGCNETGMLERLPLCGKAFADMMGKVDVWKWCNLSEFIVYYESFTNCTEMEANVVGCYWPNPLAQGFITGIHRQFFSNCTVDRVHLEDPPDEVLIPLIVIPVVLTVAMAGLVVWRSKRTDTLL
The data set is described as follows: cAMP assay for in vitro receptor activation, hAMY3-R. It is filed as cell-based. The settings on record: cAMP assay, hAMY3 receptor; read-out: hAMY3R EC50. The essentials:
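Accumulated cAMP was detected by time-resolved FRET one hour after reagent addition. Beforehand, hAMY3-R-overexpressing monoclonal cells (2000/well, DPBS, 0.05% casein, 0.5 mM IBMX) received graded doses of compound for 30 min at room temperature; human amylin served as positive control.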
For orientation: Cyclic AMP is a second messenger, typically raised through Gs and lowered through Gi signalling.

Bridge positions count the residues as written; N and C are the ends. Square brackets hold non-standard residues; d marks the D form. Peptide text beside a SMILES is read from it. Hyp = O=C(O)[C@@H]1C[C@@H](O)CN1; Cit = NC(=O)NCCC[C@H](N)C(=O)O

hAM1 receptor, sequence (Q16602 23-461): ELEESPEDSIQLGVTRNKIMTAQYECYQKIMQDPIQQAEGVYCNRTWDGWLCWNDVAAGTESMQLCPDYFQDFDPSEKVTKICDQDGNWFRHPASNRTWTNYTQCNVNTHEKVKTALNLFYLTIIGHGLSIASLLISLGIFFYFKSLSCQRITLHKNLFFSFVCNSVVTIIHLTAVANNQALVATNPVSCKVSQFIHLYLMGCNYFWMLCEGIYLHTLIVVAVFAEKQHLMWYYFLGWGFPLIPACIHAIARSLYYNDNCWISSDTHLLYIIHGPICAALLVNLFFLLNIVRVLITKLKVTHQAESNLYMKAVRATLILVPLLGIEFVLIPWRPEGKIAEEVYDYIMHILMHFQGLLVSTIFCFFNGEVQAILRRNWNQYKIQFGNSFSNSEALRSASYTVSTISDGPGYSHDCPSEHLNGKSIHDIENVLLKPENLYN
hAM1 receptor, sequence (O60895 43-175 partner): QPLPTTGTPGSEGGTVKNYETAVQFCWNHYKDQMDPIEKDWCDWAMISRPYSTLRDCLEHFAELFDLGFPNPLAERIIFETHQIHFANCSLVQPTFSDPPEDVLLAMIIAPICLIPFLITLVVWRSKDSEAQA

For orientation: EC50 means the concentration at which the effect is half-maximal. As for `CC[C@H](C)[C@H](NC(=O)[C@H](CCC(N)=O)NC(=O)[C@H](Cc1c[nH]cn1)NC(=O)[C@H](C)NC(=O)[C@H](CC(C)C)NC(=O)[C@H](CCCNC(N)=O)NC(=O)[C@H](CCC(N)=O)NC(=O)[C@@H](NC(=O)[C@@H](NC(=O)[C@@H]1CSSC[C@H](NC(=O)[C@@H](N)CCCCN)C(=O)N[C@@H](CC(N)=O)C(=O)N[C@@H]([C@@H](C)O)C(=O)N[C@@H](C)C(=O)N[C@@H]([C@@H](C)O)C(=O)N1)[C@@H](C)O)C(C)C)C(=O)N[C@@H](Cc1ccc(O)cc1)C(=O)N[C@@H](CCC(N)=O)C(=O)N[C@@H](Cc1ccccc1)C(=O)N[C@H](C(=O)N[C@@H](CC(=O)O)C(=O)N[C@@H](CCCCN)C(=O)N[C@@H](CC(=O)O)C(=O)N[C@@H](CCCCN)C(=O)N[C@@H](CC(=O)O)C(=O)N[C@@H](CC(N)=O)C(=O)N[C@H](C(=O)N[C@@H](C)C(=O)N1CCC[C@H]1C(=O)N[C@H](C(=O)N[C@@H](CC(N)=O)C(=O)N[C@H](C(=O)NCC(=O)N[C@@H](CO)C(=O)N[C@@H](CC(N)=O)C(=O)NCC(=O)N1C[C@H](O)C[C@H]1C(N)=O)C(C)C)[C@@H](C)O)C(C)C)[C@@H](C)O` [compound 255] (H-KCNTATCTVQ[Cit]LAHQIYQFTDKDKDNVAPTNVGSNG[Hyp]-NH2; disulfide 2-7; N-terminus assumed), the EC50 in data set [1] is greater than 5000 nM; in data set [3], 0.007 nM. Besides, the “Max ThT signal (%)” value in data set [2] stood at 25.000%.

Turning to `CC[C@H](C)[C@H](NC(=O)[C@H](CCC(N)=O)NC(=O)[C@H](CCC(=O)O)NC(=O)[C@H](C)NC(=O)[C@H](CC(C)C)NC(=O)[C@H](CCCNC(N)=O)NC(=O)[C@H](C)NC(=O)[C@@H](NC(=O)[C@@H](NC(=O)[C@@H]1CSSC[C@H](NC(=O)[C@@H](N)CCCNC(=N)N)C(=O)N[C@@H](CCC(N)=O)C(=O)N[C@@H]([C@@H](C)O)C(=O)N[C@@H](CO)C(=O)N[C@@H]([C@@H](C)O)C(=O)N1)[C@@H](C)O)C(C)C)C(=O)N[C@@H](C)C(=O)N[C@@H](CCC(N)=O)C(=O)N[C@@H](Cc1ccc(O)cc1)C(=O)N[C@H](C(=O)N[C@@H](CC(=O)O)C(=O)N[C@@H](CCCCN)C(=O)N[C@@H](CC(=O)O)C(=O)N[C@@H](CCCCN)C(=O)N[C@@H](CC(=O)O)C(=O)N[C@@H](CCC(N)=O)C(=O)N[C@H](C(=O)N[C@@H](C)C(=O)N1CCC[C@H]1C(=O)N1CCC[C@H]1C(=O)N[C@H](C(=O)N[C@@H](CC(N)=O)C(=O)N[C@H](C(=O)NCC(=O)N[C@@H](CO)C(=O)N[C@@H](CC(N)=O)C(=O)N[C@@H](CO)C(=O)N1C[C@H](O)C[C@H]1C(N)=O)C(C)C)[C@@H](C)O)C(C)C)[C@@H](C)O` [compound 256] (H-RCQTSTCTVA[Cit]LAEQIAQYTDKDKDQVAPPTNVGSNS[Hyp]-NH2; disulfide 2-7; N-terminus assumed), the results for the 50% effective concentration (EC50) in data set [1] and in data set [3] were greater than 5000 nM and 0.007 nM, respectively. In addition, the “Max ThT signal (%)” value in data set [2] was determined as 18.650%.

Take `CC[C@H](C)[C@H](NC(=O)[C@H](CCC(N)=O)NC(=O)[C@H](Cc1c[nH]cn1)NC(=O)[C@H](C)NC(=O)[C@H](CC(C)C)NC(=O)[C@H](CCCNC(N)=O)NC(=O)[C@H](CCC(N)=O)NC(=O)[C@@H](NC(=O)[C@@H](NC(=O)[C@@H]1CSSC[C@H](NC(=O)[C@@H](N)CCCCN)C(=O)N[C@@H](CC(N)=O)C(=O)N[C@@H]([C@@H](C)O)C(=O)N[C@@H](C)C(=O)N[C@@H]([C@@H](C)O)C(=O)N1)[C@@H](C)O)C(C)C)C(=O)N[C@@H](Cc1ccc(O)cc1)C(=O)N[C@@H](CCC(N)=O)C(=O)N[C@@H](Cc1ccccc1)C(=O)N[C@H](C(=O)N[C@@H](CC(=O)O)C(=O)N[C@@H](CCCCN)C(=O)N[C@@H](C)C(=O)N[C@@H](CCCCN)C(=O)N[C@@H](CC(=O)O)C(=O)N[C@@H](CC(N)=O)C(=O)N[C@H](C(=O)N[C@@H](C)C(=O)N1CCC[C@H]1C(=O)N1CCC[C@H]1C(=O)N[C@H](C(=O)N[C@@H](CC(N)=O)C(=O)N[C@H](C(=O)NCC(=O)N[C@@H](CO)C(=O)N[C@@H](CC(N)=O)C(=O)NCC(=O)N1C[C@H](O)C[C@H]1C(N)=O)C(C)C)[C@@H](C)O)C(C)C)[C@@H](C)O` [compound 258] (H-KCNTATCTVQ[Cit]LAHQIYQFTDKAKDNVAPPTNVGSNG[Hyp]-NH2; disulfide 2-7; N-terminus assumed): the EC50 in data set [1] was greater than 5000 nM; in data set [3], 0.01 nM. Besides, in data set [2], the “Max ThT signal (%)” value is 32.700%.

Take `CC[C@H](C)[C@H](NC(=O)[C@H](CCC(N)=O)NC(=O)[C@H](Cc1c[nH]cn1)NC(=O)[C@H](C)NC(=O)[C@H](CC(C)C)NC(=O)[C@H](CCCNC(N)=O)NC(=O)[C@H](CCC(N)=O)NC(=O)[C@@H](NC(=O)[C@@H](NC(=O)[C@@H]1CSSC[C@H](NC(=O)CN)C(=O)N[C@@H](CCCNC(=N)N)C(=O)N[C@@H]([C@@H](C)O)C(=O)NCC(=O)N[C@@H]([C@@H](C)O)C(=O)N1)[C@@H](C)O)C(C)C)C(=O)N[C@@H](Cc1ccc(O)cc1)C(=O)N[C@@H](CCC(N)=O)C(=O)N[C@@H](Cc1ccccc1)C(=O)N[C@H](C(=O)N[C@@H](CC(=O)O)C(=O)N[C@@H](CCCCN)C(=O)N[C@@H](CC(=O)O)C(=O)N[C@@H](CCCCN)C(=O)N[C@@H](CC(=O)O)C(=O)N[C@@H](CC(N)=O)C(=O)N[C@H](C(=O)N[C@@H](C)C(=O)N1CCC[C@H]1C(=O)N[C@@H](CCCNC(=N)N)C(=O)N[C@H](C(=O)N[C@@H](CC(N)=O)C(=O)N[C@H](C(=O)NCC(=O)N1CCC[C@H]1C(=O)N[C@@H](CCC(N)=O)C(=O)NCC(=O)N1C[C@H](O)C[C@H]1C(N)=O)C(C)C)[C@@H](C)O)C(C)C)[C@@H](C)O` [compound 261] (H-GCRTGTCTVQ[Cit]LAHQIYQFTDKDKDNVAPRTNVGPQG[Hyp]-NH2; disulfide 2-7; N-terminus assumed): the half-maximal effective concentration (EC50) in data set [1] was greater than 5000 nM; in data set [3] it was 0.018 nM. In addition, the “Max ThT signal (%)” value in data set [2] stood at 22.650%.

As to `CC[C@H](C)[C@H](NC(=O)[C@H](CCC(N)=O)NC(=O)[C@H](Cc1c[nH]cn1)NC(=O)[C@H](C)NC(=O)[C@H](CC(C)C)NC(=O)[C@H](CCCNC(N)=O)NC(=O)[C@H](CCC(N)=O)NC(=O)[C@@H](NC(=O)[C@@H](NC(=O)[C@@H]1CSSC[C@H](NC(=O)[C@@H](N)CCCCN)C(=O)N[C@@H](CC(N)=O)C(=O)N[C@@H]([C@@H](C)O)C(=O)N[C@@H](C)C(=O)N[C@@H]([C@@H](C)O)C(=O)N1)[C@@H](C)O)C(C)C)C(=O)N[C@@H](Cc1ccc(O)cc1)C(=O)N[C@@H](CCC(N)=O)C(=O)N[C@@H](Cc1ccccc1)C(=O)N[C@H](C(=O)N[C@@H](CC(=O)O)C(=O)N[C@@H](CCCCN)C(=O)N[C@@H](CC(=O)O)C(=O)N[C@@H](CCCCN)C(=O)N[C@@H](CC(=O)O)C(=O)N[C@@H](CC(N)=O)C(=O)N[C@H](C(=O)N[C@@H](C)C(=O)N[C@@H](C)C(=O)N1CCC[C@H]1C(=O)N[C@H](C(=O)N[C@@H](CC(N)=O)C(=O)N[C@H](C(=O)NCC(=O)N[C@@H](CO)C(=O)N[C@@H](CC(N)=O)C(=O)NCC(=O)N1C[C@H](O)C[C@H]1C(N)=O)C(C)C)[C@@H](C)O)C(C)C)[C@@H](C)O` [compound 262] (H-KCNTATCTVQ[Cit]LAHQIYQFTDKDKDNVAAPTNVGSNG[Hyp]-NH2; disulfide 2-7; N-terminus assumed), the half-maximal effective concentration (EC50) in data set [1] was greater than 5000 nM; in data set [3] it was 0.014 nM. The “Max ThT signal (%)” value in data set [2] is 9.550%.

On to `CC[C@H](C)[C@H](NC(=O)[C@H](CCC(N)=O)NC(=O)[C@H](Cc1c[nH]cn1)NC(=O)[C@H](C)NC(=O)[C@H](CC(C)C)NC(=O)[C@H](CCCNC(N)=O)NC(=O)[C@H](CCC(N)=O)NC(=O)[C@@H](NC(=O)[C@@H](NC(=O)[C@@H]1CSSC[C@H](NC(=O)[C@@H](N)CCCCN)C(=O)N[C@@H](CC(N)=O)C(=O)N[C@@H]([C@@H](C)O)C(=O)N[C@@H](C)C(=O)N[C@@H]([C@@H](C)O)C(=O)N1)[C@@H](C)O)C(C)C)C(=O)N[C@@H](Cc1ccc(O)cc1)C(=O)N[C@@H](CCC(N)=O)C(=O)N[C@@H](Cc1ccccc1)C(=O)N[C@@H](CC(=O)O)C(=O)N[C@@H](CCCCN)C(=O)N[C@@H](CC(=O)O)C(=O)N[C@@H](CCCCN)C(=O)N[C@@H](CC(=O)O)C(=O)N[C@@H](CC(N)=O)C(=O)N[C@H](C(=O)N[C@@H](C)C(=O)N1CCC[C@H]1C(=O)N1CCC[C@H]1C(=O)N[C@H](C(=O)N[C@@H](CC(N)=O)C(=O)N[C@H](C(=O)NCC(=O)N[C@@H](CO)C(=O)N[C@@H](CC(N)=O)C(=O)NCC(=O)N1C[C@H](O)C[C@H]1C(N)=O)C(C)C)[C@@H](C)O)C(C)C` [compound 265] (H-KCNTATCTVQ[Cit]LAHQIYQFDKDKDNVAPPTNVGSNG[Hyp]-NH2; disulfide 2-7; N-terminus assumed), for which the EC50 was greater than 5000 nM in data set [1] and 0.03 nM in data set [3]. Further, the “Max ThT signal (%)” value in data set [2] is given as 26.550%.
